≈ marks a conversion by molar mass, not a printed value. Like-named read-outs stand apart in the source and are kept apart here.
Columns and labels:
C. difficile = experiment: MIC by broth microdilution against C. difficile strains; format: cell-based, Clostridioides difficile; details: Clostridioides difficile; for MIC: read-out: MIC
S. aureus ATCC29213 = experiment: MIC against MSSA; format: cell-based, Staphylococcus aureus; details: Staphylococcus aureus; S. aureus ATCC29213; Table 1; read-out: MIC
Lactobacillus gasseri = experiment: MIC against gut bacterium Lactobacillus gasseri; format: cell-based
Corynebacterium spp. = experiment: MIC against gut bacterium Corynebacterium spp.; format: cell-based; details: Corynebacterium spp. strain HM-784; Table 1
Eubacterium sp. = experiment: MIC against gut bacterium Eubacterium sp.; format: cell-based; details: Eubacterium sp. strain HM-178
Fusobacterium nucleatum = experiment: MIC against gut bacterium Fusobacterium nucleatum; format: cell-based; details: Fusobacterium nucleatum strain HM-992
[1] = tested on: Fecal microbiota preparation; experiment: MIC against fecal microbiota preparation; format: cell-based; details: Fecal microbiota preparation from OpenBiome tested at 1000-fold dilution
Protocol: Minimum inhibitory concentrations (MIC). MICs for C. difficile strains and the common gut bacteria were determined using broth microdilution techniques as reported earlier using brucella broth supplemented with hemin and vitamin K or supplemented BHIS broth. Lactobacillus MRS broth was used for lactobacillus strains. Sodium lactate was supplemented in the media for Veillonella sp. […] All incubations, unless specified otherwise, were carried out at 24 h or 48 h at 37° C. in an anaerobic chamber (Whitley DG250 workstation, Microbiology International, Frederick, Md.). Corynebacterium and Lactobacillus species were incubated aerobically.

Bifidobacterium longum = experiment: MIC against gut bacterium Bifidobacterium longum; format: cell-based; details: Bifidobacterium longum strain HM-846
Veillonella sp. HM-49 = experiment: MIC against gut bacterium Veillonella sp.; format: cell-based
MRSA (NRS70, NRS119) = experiment: MIC against MRSA strains; format: cell-based, Staphylococcus aureus
Lactobacillus reuteri = experiment: MIC against gut bacterium Lactobacillus reuteri; format: cell-based
Bacteroides fragilis = experiment: MIC against gut bacterium Bacteroides fragilis; format: cell-based; details: Bacteroides fragilis strain HM-709

For `CN[C@H](CC(C)C)C(=O)N[C@H]1C(=O)N[C@@H](CC(N)=O)C(=O)N[C@H]2C(=O)N[C@H]3C(=O)N[C@H](C(=O)N[C@H](C(=O)O)c4cc(O)cc(O)c4-c4cc3ccc4O)[C@H](O)c3ccc(c(Cl)c3)Oc3cc2cc(c3O[C@@H]2O[C@H](CO)[C@@H](O)[C@H](O)[C@H]2O[C@H]2C[C@](C)(N)[C@H](O)[C@H](C)O2)Oc2ccc(cc2Cl)[C@H]1O` [VAN, vancomycin, reference compound], the MIC (C. difficile; ATCC43598, C. difficile ATCC43598, Table 7) was 1 µg/mL (≈ 0.69 µM), the MIC (C. difficile; ATCC43598, C. difficile ATCC43598, Table 9) was 1 µg/mL (≈ 0.69 µM) and the MIC (C. difficile; BAA1801, C. difficile BAA-1801, Table 7) was 0.25 µg/mL (≈ 0.173 µM). It also gave an MIC (C. difficile; BAA1801, C. difficile BAA-1801, Table 9) of 0.25 µg/mL (≈ 0.173 µM), an MIC (C. difficile; BAA1803, C. difficile BAA-1803, Table 7) of 2 µg/mL (≈ 1.38 µM) and an MIC (C. difficile; BAA1803, C. difficile BAA-1803, Table 9) of 2 µg/mL (≈ 1.38 µM). It also gave an MIC (C. difficile; BAA1804, C. difficile BAA-1804, Table 7) of 1 µg/mL (≈ 0.69 µM), an MIC (C. difficile; BAA1804, C. difficile BAA-1804, Table 9) of 1 µg/mL (≈ 0.69 µM) and an MIC (C. difficile; BAA1870, C. difficile BAA-1870 (NAP1, ribotype 27), Table 1) of 2 µg/mL (≈ 1.38 µM). For the same molecule, the MIC (C. difficile; BAA1870, C. difficile BAA-1870, Table 7) was 2 µg/mL (≈ 1.38 µM), the MIC (C. difficile; BAA1870, C. difficile BAA-1870, Table 9) was 2 µg/mL (≈ 1.38 µM) and the MIC (C. difficile; C. difficile 23691 (VR, vancomycin-resistant), Table 7) was 4 µg/mL (≈ 2.76 µM). It also gave an MIC (C. difficile; C. difficile 23691, clinical isolate resistant to VAN, Table 1) of 4 µg/mL (≈ 2.76 µM), an MIC (C. difficile; C. difficile 23691, Table 9) of 4 µg/mL (≈ 2.76 µM) and an MIC (C. difficile; C. difficile 23828 (FR, fidaxomicin-resistant), Table 7) of 2 µg/mL (≈ 1.38 µM). It also gave an MIC (C. difficile; C. difficile 23828, clinical isolate resistant to FDX, Table 1) of 2 µg/mL (≈ 1.38 µM), an MIC (C. difficile; C. difficile 23828, Table 9) of 2 µg/mL (≈ 1.38 µM) and an MIC (C. difficile; C. difficile 24531 (VR, vancomycin-resistant), Table 7) of 4 µg/mL (≈ 2.76 µM). For the same molecule, the MIC (C. difficile; C. difficile 24531, Table 9) was 4 µg/mL (≈ 2.76 µM), the MIC (C. difficile; C. difficile 24923 (VR, vancomycin-resistant), Table 7) was 8 µg/mL (≈ 5.52 µM) and the MIC (C. difficile; C. difficile 24923, Table 9) was 8 µg/mL (≈ 5.52 µM). The MIC (C. difficile; C. difficile 26675 (MR, metronidazole-resistant), Table 7) was 1 µg/mL (≈ 0.69 µM), the MIC (C. difficile; C. difficile 26675, clinical isolate resistant to MTZ, Table 1) was 1 µg/mL (≈ 0.69 µM) and the MIC (C. difficile; C. difficile 26675, Table 9) was 1 µg/mL (≈ 0.69 µM). For the same molecule, the MIC (C. difficile; C. difficile 27081 (FR, fidaxomicin-resistant), Table 7) was 1 µg/mL (≈ 0.69 µM), the MIC (C. difficile; C. difficile 27081, Table 9) was 1 µg/mL (≈ 0.69 µM) and the MIC (C. difficile; C. difficile HM-89, Table 9) was 0.25 µg/mL (≈ 0.173 µM). For the same molecule, the MIC (C. difficile; C. difficile NR49292, Table 7) was 0.25 µg/mL (≈ 0.173 µM), the MIC (C. difficile; C. difficile NR49292, Table 9) was 0.25 µg/mL (≈ 0.173 µM) and the MIC (C. difficile; C. difficile NR49294, Table 7) was 0.25 µg/mL (≈ 0.173 µM). The MIC (C. difficile; C. difficile NR49294, Table 9) was 0.25 µg/mL (≈ 0.173 µM), the MIC (C. difficile; C. difficile NR49318, Table 7) was 0.25 µg/mL (≈ 0.173 µM) and the MIC (C. difficile; C. difficile NR49318, Table 9) was 0.25 µg/mL (≈ 0.173 µM). It also gave an MIC (C. difficile; C. difficile NR-13427, Table 9) of 1 µg/mL (≈ 0.69 µM), an MIC (C. difficile; C. difficile NR-13428, Table 9) of 2 µg/mL (≈ 1.38 µM) and an MIC (C. difficile; C. difficile NR-13431, Table 9) of 0.25 µg/mL (≈ 0.173 µM). The MIC (C. difficile; C. difficile NR-13433, Table 9) was 1 µg/mL (≈ 0.69 µM), the MIC (C. difficile; C. difficile NR-32885, Table 9) was 1 µg/mL (≈ 0.69 µM) and the MIC (C. difficile; C. difficile NR-32889, Table 9) was 2 µg/mL (≈ 1.38 µM). For the same molecule, the MIC (C. difficile; C. difficile NR-32890, Table 9) was 2 µg/mL (≈ 1.38 µM), the MIC (C. difficile; C. difficile NR-32891, Table 9) was 1 µg/mL (≈ 0.69 µM) and the MIC (C. difficile; C. difficile NR-32895, Table 9) was 2 µg/mL (≈ 1.38 µM). It also gave an MIC (C. difficile; C. difficile NR-32896, Table 9) of 2 µg/mL (≈ 1.38 µM), an MIC (C. difficile; C. difficile NR-32897, Table 9) of 0.25 µg/mL (≈ 0.173 µM) and an MIC (C. difficile; C. difficile NR-32900, Table 9) of 1 µg/mL (≈ 0.69 µM). For the same molecule, the MIC (C. difficile; C. difficile NR-32904, Table 9) was 0.25 µg/mL (≈ 0.173 µM), the MIC (C. difficile; C. difficile NR-49280, Table 9) was 1 µg/mL (≈ 0.69 µM) and the MIC (C. difficile; C. difficile NR-49285, Table 9) was 0.25 µg/mL (≈ 0.173 µM). It also gave an MIC (C. difficile; C. difficile NR-49291, Table 9) of 1 µg/mL (≈ 0.69 µM), an MIC (C. difficile; C. difficile NR-49298, Table 9) of 1 µg/mL (≈ 0.69 µM) and an MIC (C. difficile; C. difficile NR-49306, Table 9) of 1 µg/mL (≈ 0.69 µM). The MIC (C. difficile; C. difficile NR-49307, Table 9) was 1 µg/mL (≈ 0.69 µM), the MIC (C. difficile; C. difficile NR-49309, Table 9) was 1 µg/mL (≈ 0.69 µM) and the MIC (C. difficile; C. difficile NR-49320, Table 9) was 1 µg/mL (≈ 0.69 µM). The MIC (C. difficile; C. difficile NR-49321, Table 9) was 0.25 µg/mL (≈ 0.173 µM), the MIC (C. difficile; C. difficile NR-49328, Table 9) was 0.25 µg/mL (≈ 0.173 µM) and the MIC (C. difficile; C. difficile NR-49329, Table 9) was 0.25 µg/mL (≈ 0.173 µM). The MIC90 (C. difficile; read-out: MIC90 (101 strains)) was 2 µg/mL (≈ 1.38 µM), the MIC (S. aureus ATCC29213) was 1 µg/mL (≈ 0.69 µM) and the MIC (Lactobacillus gasseri; Lactobacillus gasseri strain HM-644, Table 7) was 1 µg/mL (≈ 0.69 µM). For the same molecule, the MIC (Lactobacillus gasseri; Lactobacillus gasseri, Lactobacillus gasser strain HM-644, Table 1, read-out: MIC) was 1 µg/mL (≈ 0.69 µM), the MIC (Corynebacterium spp.) was 0.25 µg/mL (≈ 0.173 µM) and the MIC (Eubacterium sp.; Table 1, read-out: MIC) was 2 µg/mL (≈ 1.38 µM). It also gave an MIC (Eubacterium sp.; Table 7) of 2 µg/mL (≈ 1.38 µM), an MIC (Fusobacterium nucleatum; Table 1, read-out: MIC) of 0.25 µg/mL (≈ 0.173 µM) and an MIC (Fusobacterium nucleatum; Table 7) of 0.25 µg/mL (≈ 0.173 µM). For the same molecule, the MIC [1] was > 128 µg/mL, the MIC (Bifidobacterium longum; Table 1, read-out: MIC) was 0.25 µg/mL (≈ 0.173 µM) and the MIC (Bifidobacterium longum; Table 7) was 0.25 µg/mL (≈ 0.173 µM). For the same molecule, the MIC (Veillonella sp. HM-49; SP.HM49, Veillonella sp. HM-49, Table 1, read-out: MIC) was > 32 µg/mL, the MIC (Veillonella sp. HM-49; Veillonella sp. strain HM-49, Table 7) was >32 µg/mL and the MIC (MRSA (NRS70, NRS119); MRSA NRS70, Table 7) was 2 µg/mL (≈ 1.38 µM). The MIC (MRSA (NRS70, NRS119); MRSA NRS119, Table 1) was 2 µg/mL (≈ 1.38 µM), the MIC (MRSA (NRS70, NRS119); Staphylococcus aureus, MRSA NRS70, Table 1, read-out: MIC) was 2 µg/mL (≈ 1.38 µM) and the MIC (Lactobacillus reuteri; Lactobacillus reuteri strain HM-102, Table 7) was >32 µg/mL. The MIC (Lactobacillus reuteri; Limosilactobacillus reuteri, Lactobacillus reuter strain HM-102, Table 1, read-out: MIC) was > 32 µg/mL, the MIC (Bacteroides fragilis; Table 1, read-out: MIC) was 16 µg/mL (≈ 11 µM) and the MIC (Bacteroides fragilis; Table 7) was 16 µg/mL (≈ 11 µM).

Source: patent publication US20230271950A1, “ANTIBACTERIAL PICOLINAMIDE COMPOUNDS” (University of Notre Dame Du Lac, priority 2020, published 2023)
